The results in this text go back to ChEMBL document CHEMBL2331130, “Synthesis and antibacterial activity of 9-oxime ether non-ketolides, and novel binding mode of alkylides with bacterial rRNA” (2013).

What all share (assay type): functional
The test system of assay [1] is Streptococcus pyogenes. The experiment in a line: Antibacterial activity against MLS-resistant (constitutive) Streptococcus pyogenes A2 by broth microdilution method. A general note: Dilution methods test growth across graded concentrations, often in twofold steps.
Assay [2] has as its system Staphylococcus aureus. The assay is described as follows: Antibacterial activity against erythromycin-susceptible Staphylococcus aureus ATCC 29213 by broth microdilution method.
In assay [3] the test system is Streptococcus pneumoniae. The experiment in a line: Antibacterial activity against MLS-resistant (constitutive), penicillin-resistant Streptococcus pneumoniae PU11 by broth microdilution method.
For assay [4], the system named is Streptococcus pneumoniae. The assay is described as follows: Antibacterial activity against penicillin-susceptible Streptococcus pneumoniae PU09 harboring mef gene by broth microdilution method.
Assay [5] has as its system Streptococcus dysgalactiae. The experiment in a line: Antibacterial activity against erythromycin-resistant Streptococcus dysgalactiae A1 by broth microdilution method.
The subject of assay [6] is Staphylococcus epidermidis. The assay is described as follows: Antibacterial activity against methicillin-resistant, MLS-resistant (constitutive) Staphylococcus epidermidis E2 by broth microdilution method.
Assay [7] concerns Streptococcus pneumoniae. The experiment in a line: Antibacterial activity against erythromycin-susceptible Streptococcus pneumoniae ATCC 49619 by broth microdilution method.
Assay [8] concerns Staphylococcus aureus. The assay is described as follows: Antibacterial activity against methicillin-resistant, […], MLS-resistant (constitutive) Staphylococcus aureus PU 19 by broth microdilution method.
The test system of assay [9] is Staphylococcus epidermidis. The experiment in a line: Antibacterial activity against methicillin-resistant, coagulase-negative, MLS-resistant (inducible) Staphylococcus epidermidis E3 by broth microdilution method.
The subject of assay [10] is Staphylococcus epidermidis. The assay is described as follows: Antibacterial activity against methicillin-susceptible, MLS-resistant (inducible) Staphylococcus epidermidis E1 by broth microdilution method.
Assay [11] has as its system Staphylococcus aureus. The experiment in a line: Antibacterial activity against methicillin-resistant, MLS-resistant (inducible) Staphylococcus aureus PU 32 by broth microdilution method.
Assay [12] has as its system Streptococcus pyogenes. The assay is described as follows: Antibacterial activity against erythromycin-susceptible Streptococcus pyogenes A3 by broth microdilution method.
Assay [13] has as its system Staphylococcus aureus. The assay is described as follows: Antibacterial activity against methicillin-susceptible, MLS-resistant (inducible) Staphylococcus aureus PU 64 by broth microdilution method.
Assay [14] has as its system Staphylococcus aureus. The assay is described as follows: Antibacterial activity against methicillin-resistant, MLS-resistant (constitutive) Staphylococcus aureus PU 20 by broth microdilution method.
Assay [15] deals with Streptococcus pneumoniae. The assay is described as follows: Antibacterial activity against MLS-resistant (constitutive), penicillin-susceptible Streptococcus pneumoniae PU27 by broth microdilution method.

Values after ≈ are worked out from the molar mass of the structure shown.

As usually defined, the MIC is the least concentration at which growth counts as inhibited. With `CC[C@H]1OC(=O)[C@H](C)C(=O)[C@H](C)[C@@H](O[C@@H]2O[C@H](C)C[C@H](N(C)C)[C@H]2O)[C@](C)(OC)C[C@@H](C)/C(=N\OC/C=C/c2ccc(-c3cccs3)cc2)[C@H](C)[C@H]2OC(=O)O[C@@]21C`, the MIC against Streptococcus pyogenes [1] worked out at 32 µg/mL (≈ 38.7 µM); in the assay with Staphylococcus aureus [2], 32 µg/mL (≈ 38.7 µM); with Streptococcus pneumoniae [3], 64 µg/mL (≈ 77.4 µM); in the assay on Streptococcus pneumoniae [4], 16 µg/mL (≈ 19.3 µM); in assay [5] it was 16 µg/mL (≈ 19.3 µM); in assay [6] it was 256 µg/mL (≈ 310 µM). The MIC came to 2 µg/mL (≈ 2.42 µM) with Streptococcus pneumoniae [7]; 64 µg/mL (≈ 77.4 µM) in the assay with Staphylococcus aureus [8]; 64 µg/mL (≈ 77.4 µM) in assay [9]; 64 µg/mL (≈ 77.4 µM) in assay [10]; 64 µg/mL (≈ 77.4 µM) against Staphylococcus aureus [11]; 1 µg/mL (≈ 1.21 µM) with Streptococcus pyogenes [12].
Regarding `CC[C@H]1OC(=O)[C@H](C)[C@@H](O[C@H]2C[C@@](C)(OC)[C@@H](O)[C@H](C)O2)[C@H](C)[C@@H](O[C@@H]2O[C@H](C)C[C@H](N(C)C)[C@H]2O)[C@](C)(OC)C[C@@H](C)C(=O)[C@H](C)[C@@H](O)[C@]1(C)O` [CLARITHROMYCIN], the minimum inhibitory concentration (MIC) against Streptococcus pyogenes [1] was above 256 µg/mL; in the assay with Staphylococcus aureus [13] it was above 256 µg/mL; in the assay on Staphylococcus aureus [2], 0.5 µg/mL (≈ 0.668 µM); in the assay with Streptococcus pneumoniae [3], above 256 µg/mL; against Staphylococcus aureus [14], above 256 µg/mL; in the assay on Streptococcus pneumoniae [4] it was above 256 µg/mL. Besides, the MIC in assay [5] was 16 µg/mL (≈ 21.4 µM); in assay [6], above 256 µg/mL; with Streptococcus pneumoniae [7] it was 0.032 µg/mL (≈ 0.0428 µM); in the assay with Staphylococcus aureus [8], above 256 µg/mL; in [9], above 256 µg/mL; in assay [10], above 256 µg/mL. In addition, the MIC is above 256 µg/mL in the assay with Staphylococcus aureus [11], at most 0.008 µg/mL in the assay with Streptococcus pyogenes [12] and above 256 µg/mL against Streptococcus pneumoniae [15].
For `CC[C@H]1OC(=O)[C@H](C)[C@@H](O[C@H]2C[C@@](C)(OC)[C@@H](O)[C@H](C)O2)[C@H](C)[C@@H](O[C@@H]2O[C@H](C)C[C@H](N(C)C)[C@H]2O)[C@](C)(O)C[C@@H](C)CN(C)[C@H](C)[C@@H](O)[C@]1(C)O` [AZITHROMYCIN], the MIC in the assay on Streptococcus pyogenes [1] is above 256 µg/mL; with Staphylococcus aureus [2] it was 2 µg/mL (≈ 2.67 µM); with Streptococcus pneumoniae [3], above 256 µg/mL; with Streptococcus pneumoniae [4], 64 µg/mL (≈ 85.4 µM); in [5] it was 64 µg/mL (≈ 85.4 µM); in [6], above 256 µg/mL. In addition, the minimal inhibitory concentration (MIC) is 0.25 µg/mL (≈ 0.334 µM) against Streptococcus pneumoniae [7]; above 256 µg/mL against Staphylococcus aureus [8]; above 256 µg/mL in assay [9]; above 256 µg/mL in assay [10]; above 256 µg/mL against Staphylococcus aureus [11]; at most 0.008 µg/mL against Streptococcus pyogenes [12].
`CC[C@H]1OC(=O)[C@H](C)C(=O)[C@H](C)[C@@H](O[C@@H]2O[C@H](C)C[C@H](N(C)C)[C@H]2O)[C@](C)(OC)C[C@@H](C)/C(=N\OC/C=C/c2ccc(-c3ccccn3)s2)[C@H](C)[C@H]2OC(=O)O[C@@]21C`: the MIC in the assay on Streptococcus pyogenes [1] was 64 µg/mL (≈ 77.3 µM); with Staphylococcus aureus [2], 8 µg/mL (≈ 9.66 µM); in the assay on Streptococcus pneumoniae [3], 64 µg/mL (≈ 77.3 µM); against Streptococcus pneumoniae [4], 4 µg/mL (≈ 4.83 µM); in assay [5], 4 µg/mL (≈ 4.83 µM); in assay [6] it was above 256 µg/mL. In addition, the MIC in the assay on Streptococcus pneumoniae [7] is 0.5 µg/mL (≈ 0.604 µM); in the assay with Staphylococcus aureus [8], 128 µg/mL (≈ 155 µM); in assay [9], 64 µg/mL (≈ 77.3 µM); in assay [10] it was 32 µg/mL (≈ 38.6 µM); in the assay on Staphylococcus aureus [11], 8 µg/mL (≈ 9.66 µM); in the assay on Streptococcus pyogenes [12] it was 0.5 µg/mL (≈ 0.604 µM).
Turning to `CC[C@H]1OC(=O)[C@H](C)C(=O)[C@H](C)[C@@H](O[C@@H]2O[C@H](C)C[C@H](N(C)C)[C@H]2O)[C@](C)(OC)C[C@@H](C)/C(=N\OC/C=C/c2ccc(C(=O)c3ccccc3)s2)[C@H](C)[C@H]2OC(=O)O[C@@]21C`, the MIC against Streptococcus pyogenes [1] was 64 µg/mL (≈ 74.8 µM); in the assay with Staphylococcus aureus [2] it was 16 µg/mL (≈ 18.7 µM); in the assay with Streptococcus pneumoniae [3] it was 64 µg/mL (≈ 74.8 µM); in the assay with Streptococcus pneumoniae [4] it was 4 µg/mL (≈ 4.68 µM); in [5] it was 4 µg/mL (≈ 4.68 µM); in assay [6], above 256 µg/mL. The MIC in the assay with Streptococcus pneumoniae [7] was 2 µg/mL (≈ 2.34 µM); against Staphylococcus aureus [8] it was above 256 µg/mL; in assay [9] it was 64 µg/mL (≈ 74.8 µM); in assay [10], 32 µg/mL (≈ 37.4 µM); against Staphylococcus aureus [11], 16 µg/mL (≈ 18.7 µM); against Streptococcus pyogenes [12], 2 µg/mL (≈ 2.34 µM).
